What was measured:
Format in all cases: cell-based
human EGF-R = target: T1, human EGF-R (Homo sapiens, UniProt P00533); assay: Inhibition of EGF-dependent proliferation of F/L-HERc cells; details: human EGF 20 ng/ml, 48 hours
T1 construct: expressed in transfected cells; host or cells: F/L-HERc cells: murine IL-3-dependent line FDC-P1 infected with recombinant retrovirus (LXSN vector, GP+E86 packaging line) carrying human EGF-R cDNA
Source text: (§1) The inhibition of EGF-R-mediated signal transmission can be detected, for example, with cells which express human EGF-R, the survival and proliferation of which depend on stimulation by EGF or TGF-alpha. An interleukin-3 (IL-3)-dependent cell line of murine origin which was changed genetically such that it expresses functional human EGF-R was used here. The proliferation of these cells, called F/L-HERc, can therefore be stimulated either by murine IL-3 or by EGF (see von Ruden, T. et al. in EMBO J. 7, 2749-2756 (1988) and Pierce, J. H. et al. in Science 239, 628-631 (1988)).
(§2) The starting material used for the F/L-HERc cells was the cell line FDC-P1, the preparation of which has been described by Dexter, T. M. et al. in J. Exp. Med. 152, 1036-1047 (1980). Alternatively, however, other growth factor-dependent cells can also be used (see, for example, Pierce, J. H. et al. in Science 239, 628-631 (1988), Shibuya, H. et al. in Cell 70, 57-67 (1992) and Alexander, W. S. et al. in EMBO J. 10, 3683-3691 (1991)). Recombinant retroviruses were used for expression of the human EGF-R cDNA (see Ullrich, A. et al. in Nature 309, 418-425 (1984)), as described in yon Ruden, T. et al., EMBO J. 7, 2749-2756 (1988), with the difference that the retroviral vector LXSN (see Miller, A. D. et al. in BioTechniques 7, 980-990 (1989)) was used for expression of the EGF-R cDNA and the line GP+E86 (see Markowitz, D. et al. in J. Virol. 62, 1120-1124 (1988)) was used as the packing cell.
(§3) The test was carried out as follows:
(§4) F/L HERc cells were cultured at 37° C. and 5% CO2 in RPMI/1640 medium (BioWhittaker), supplemented with 10% foetal bovine serum (FCS, Boehringer Mannheim), 2 mM glutamine (BioWhittaker), standard antibiotics and 20 ng/ml of human EGF (Promega). For investigation of the inhibitory activity of the compounds according to the invention, 1.5×10^4 cells per well were cultured in triplicate in 96-well plates in the above medium (200 μl), proliferation of the cells being stimulated with either EGF (20 ng/ml) or murine IL-3. Culture stocks of the cell line X63/0 mIL-3 were used as the source for IL-3 (see Karasuyama, H. et al. in Eur. J. Immunol. 18, 97-104 (1988)). The compounds according to the invention were dissolved in 100% dimethyl sulphoxide (DMSO) and added to the cultures in various dilutions, the maximum DMSO concentration being 1%. The cultures were incubated at 37° C. for 48 hours.
(§5) To determine the inhibitory activity of the compounds according to the invention, the relative cell count was measured in OD units with Cell Titer 96™ Aqueous Non-Radioactive Cell Proliferation Assay (Promega). The relative cell count was calculated in per cent of the control (F/LHERc cells without inhibitor) and the active compound concentration which inhibits the proliferation of the cells to 50% (IC50) was deduced.

F/L-HERc cells = assay: Inhibition of IL-3-dependent proliferation of F/L-HERc cells; details: Mus musculus, murine IL-3, 48 hours
Source text: as §1, §2, §3, §4, §5

[1] = system: human tumour cell line KB; assay: EGF/TGF-alpha-stimulated proliferation (thymidine incorporation) of KB cells; details: TGF-alpha 10 ng/ml or EGF 20 ng/ml, 60 hours, then [3H]-thymidine 16-18 hours, read-out: IC50 for inhibition of the EGF/TGF-alpha-stimulated KB cell proliferation
Experimental: KB cells (obtained from ATCC) were passaged in DMEM (BioWhittaker) in the presence of 10% FCS (Boehringer Mannheim), 50 μM beta-mercaptoethanol and standard antibiotics. As an indicator of EGF/TGF-alpha-stimulated cell proliferation, the EGF-inducedDNA synthesis was determined by measurement of the incorporation of radioactively labelled thymidine. For this, the celels were washed twice and 1500 cells per well were plated out in a 96-well plate in 200 μl IMDM (BioWhittaker) without serum in the presence of 50 μM beta-mercaptoethanol, standard antibiotics, TGF-alpha [10 ng/ml] or EGF [20 ng/ml] and various concentrations of the substances according to the invention (triplicates, maximum DMSO concentration 1%, see proliferation test with F/L-HERc cells). After 60 hours, [^3 H]-thymidine (0.1 μCi in 10 μl) was added for about 16-18 hours. Subsequent measurement of the thymidine incorporation gave IC50 values of 0.1-1 μM for inhibition of the EGF/TGF-alpha-stimulated KB cell proliferation for compounds 2, 6, 17, 18, 19, 72, 83, 93, 95, 96 and 104 of Example 1.

T1 sequence (P00533 25-1210): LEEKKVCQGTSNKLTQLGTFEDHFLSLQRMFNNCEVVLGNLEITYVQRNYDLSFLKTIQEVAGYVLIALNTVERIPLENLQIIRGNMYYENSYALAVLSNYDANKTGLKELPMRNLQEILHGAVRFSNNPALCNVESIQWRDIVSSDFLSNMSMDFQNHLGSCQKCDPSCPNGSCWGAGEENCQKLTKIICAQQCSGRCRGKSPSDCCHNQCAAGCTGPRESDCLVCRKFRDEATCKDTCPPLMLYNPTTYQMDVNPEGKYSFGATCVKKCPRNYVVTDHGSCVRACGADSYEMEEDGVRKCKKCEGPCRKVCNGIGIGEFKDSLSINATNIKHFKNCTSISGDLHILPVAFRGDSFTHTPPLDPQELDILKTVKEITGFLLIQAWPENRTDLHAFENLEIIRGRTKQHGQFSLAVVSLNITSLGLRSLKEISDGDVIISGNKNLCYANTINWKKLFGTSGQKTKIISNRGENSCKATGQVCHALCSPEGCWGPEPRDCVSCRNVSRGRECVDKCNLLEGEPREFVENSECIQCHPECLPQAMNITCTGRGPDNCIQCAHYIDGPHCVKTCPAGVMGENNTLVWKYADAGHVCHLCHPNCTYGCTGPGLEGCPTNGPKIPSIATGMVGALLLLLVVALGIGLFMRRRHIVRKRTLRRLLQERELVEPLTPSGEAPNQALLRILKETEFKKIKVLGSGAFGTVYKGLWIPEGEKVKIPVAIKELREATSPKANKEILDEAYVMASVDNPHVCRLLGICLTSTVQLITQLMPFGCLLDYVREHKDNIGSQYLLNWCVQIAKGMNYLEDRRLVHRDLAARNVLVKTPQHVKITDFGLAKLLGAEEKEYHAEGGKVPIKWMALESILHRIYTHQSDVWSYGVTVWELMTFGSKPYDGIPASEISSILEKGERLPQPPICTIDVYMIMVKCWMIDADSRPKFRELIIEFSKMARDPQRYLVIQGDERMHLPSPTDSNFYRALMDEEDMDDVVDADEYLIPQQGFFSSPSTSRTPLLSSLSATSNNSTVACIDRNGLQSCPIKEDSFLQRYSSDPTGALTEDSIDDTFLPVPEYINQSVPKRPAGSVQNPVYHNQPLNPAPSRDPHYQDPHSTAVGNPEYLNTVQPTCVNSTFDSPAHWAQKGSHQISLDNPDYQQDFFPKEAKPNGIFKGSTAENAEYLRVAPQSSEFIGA

SMILES	IC50 (human EGF-R)	IC50 [1]	IC50 (F/L-HERc cells)
Cc1cccc(Nc2ncnc3cnc(N4CCCC4)nc23)c1 [Example 1(18), 4-[(3-Methylphenyl)amino]-6-(1-pyrrolidinyl)-pyrimido[5,4-d]pyrimidine]		100 to 1000 nM	
Clc1cccc(Nc2ncnc3cnc(NC4CC4)nc23)c1 [Example 1(83), 4-[(3-Chlorophenyl)amino]-6-(cyclopropylamino)-pyrimido[5,4-d]pyrimidine]		100 to 1000 nM	
CC(C)Nc1ncc2ncnc(Nc3cccc(Br)c3)c2n1 [Example 1(95), 4-[(3-Bromophenyl)amino]-6-(isopropylamino)-pyrimido[5,4-d]pyrimidine]		100 to 1000 nM	
O[C@H]1CC[C@H](Nc2ncc3ncnc(Nc4cccc(Br)c4)c3n2)CC1 [Example 1(104), 4-[(3-Bromophenyl)amino]-6-[(trans-4-hydroxycyclohexyl)-amino]pyrimido[5,4-d]pyrimidine]		100 to 1000 nM	
Cc1cccc(Nc2ncnc3cnc(NC(C)C)nc23)c1 [Example 1(2), 4-[(3-Methylphenyl)amino]-6-(isopropylamino)-pyrimido[5,4-d]pyrimidine]		100 to 1000 nM	
Cc1cccc(Nc2ncnc3cnc(NC(C)(C)C)nc23)c1 [1(6), 4-[(3-Methylphenyl)amino]-6-(tert-butylamino)-pyrimido[5,4-d]pyrimidine]	5 nM	100 to 1000 nM	> 10000 nM
CC(C)Nc1ncc2ncnc(Nc3cccc(Cl)c3)c2n1 [Example 1(96), 4-[(3-Chlorophenyl)amino]-6-(isopropylamino)-pyrim-ido[5,4-d]pyrimidine]		100 to 1000 nM	
Clc1cccc(Nc2ncnc3cnc(N4CCCC4)nc23)c1 [Example 1(93), 4-[(3-Chlorophenyl)amino]-6-(1-pyrrolidinyl)-pyrim-ido[5,4-d]pyrimidine]		100 to 1000 nM	

Continued, in another order:

IC50 (human EGF-R)	IC50 [1]	SMILES	IC50 (F/L-HERc cells)
40 nM	100 to 1000 nM	Cc1cccc(Nc2ncnc3cnc(NC4CC4)nc23)c1 [1(17), 4-[(3-Methylphenyl)amino]-6-(cyclopropylamino)-pyrimido[5,4-d]pyrimidine]	> 3000 nM
3 nM	100 to 1000 nM	Cc1cccc(Nc2ncnc3cnc(N[C@H]4CC[C@H](O)CC4)nc23)c1 [1(72), 4-[(3-Methylphenyl)amino]-6-[(trans-4-hydroxycyclohexyl)amino]-pyrimido[5,4-d]pyrimidine]	> 3000 nM
50 nM	100 to 1000 nM	Cc1cccc(Nc2ncnc3cnc(N4CCOCC4)nc23)c1 [1(19), 4-[(3-Methylphenyl)amino]-6-(morpholino)-pyrimido[5,4-d]pyrimidine]	> 10000 nM

— patent publication US5707989A, “Pyrimido[5,4-D]pyrimidines, medicaments comprising these compounds, their use and processes for their preparation” (Dr. Karl Thomae GmbH, priority 1994, dated 1998)
